Experimental data as given in patent EP4707277A1, “NOVEL HETEROCYCLIC AMINE DERIVATIVES AND PHARMACEUTICAL COMPOSITION COMPRISING SAME” (Daewoong Pharmaceutical Co., Ltd., priority 2023, dated 2024).
Like-named read-outs stand apart in the source and are kept apart here.

Legend:
BTK = target: T1, BTK (Homo sapiens, UniProt Q06187); test: Inhibitory activity against BTK, ADP-Glo Kinase system (Promega); assay type: biochemical
T1 construct: purchased Signalchem B10-10H
Method: (§1) Inhibitory activities against BTK and ITK were measured for the compounds prepared in the above Examples as follows.
(§2) The inhibitory activities against BTK and ITK were evaluated using 'ADP-Glo™ Kinase system' (Promega Corporation). In the case of this evaluation method, activation was measured by quantifying the amount of ADP produced during the kinase reaction, which was utilized to measure the inhibitory activities against BTK and ITK.
(§3) Specifically, the inhibitory activities against BTK and ITK were measured using BTK kinase (Signalchem, B10-10H), ITK kinase (Signalchem, I13-11G-10), and ADP-Glo kinase assay kit (Promega, V9102). Recombinant purified human BTK and ITK were diluted with 1 x kinase reaction buffer (40 mM Tris-Cl, pH 7.5, 20 mM MgCl2, 0.1 mg/mL BSA, 2 mM MnCl2 and 50 uM DTT) and added to a 96 well plate (ITK: final concentration of 4 ng per reaction/BTK: final concentration of 10 ng per reaction). The compounds prepared in the previous Examples were treated so as to be finally a 1% DMSO aqueous solution, and a substrate cocktail containing ATP (1mM or Km ATP (BTK: 10 uM /ITK: 25uM)) and 0.2 ug/ul of Poly (Glu4,Tyr1) peptide (BTK and ITK final concentration) in the total 25 uL reactants was added to a 96-well plate to initiate enzymatic reaction. After incubation (30°C) for 1 hour, equivalent volume (25 uL per reaction) of ADP Glo was added, and incubated (30°C) for 40 minutes at room temperature. Then, a kinase detection reagent (45 uL per reaction) was added, and incubated (30°C) for 30 minutes at room temperature. The kinase activity was measured by chemiluminescence according to the instructions of ADP Glo kinase assay kit, and the inhibitory activity of the compounds according to the present disclosure was calculated. For the analysis of the results of each compound, Microsoft Excel was used, and IC50 values were calculated by GraphPad Prism software.

ITK = target: T2, ITK (Homo sapiens, UniProt Q08881); test: Inhibitory activity against ITK, ADP-Glo Kinase system (Promega); assay type: biochemical
T2 construct: purchased Signalchem I13-11G-10
T2 sequence (Q08881 1-620): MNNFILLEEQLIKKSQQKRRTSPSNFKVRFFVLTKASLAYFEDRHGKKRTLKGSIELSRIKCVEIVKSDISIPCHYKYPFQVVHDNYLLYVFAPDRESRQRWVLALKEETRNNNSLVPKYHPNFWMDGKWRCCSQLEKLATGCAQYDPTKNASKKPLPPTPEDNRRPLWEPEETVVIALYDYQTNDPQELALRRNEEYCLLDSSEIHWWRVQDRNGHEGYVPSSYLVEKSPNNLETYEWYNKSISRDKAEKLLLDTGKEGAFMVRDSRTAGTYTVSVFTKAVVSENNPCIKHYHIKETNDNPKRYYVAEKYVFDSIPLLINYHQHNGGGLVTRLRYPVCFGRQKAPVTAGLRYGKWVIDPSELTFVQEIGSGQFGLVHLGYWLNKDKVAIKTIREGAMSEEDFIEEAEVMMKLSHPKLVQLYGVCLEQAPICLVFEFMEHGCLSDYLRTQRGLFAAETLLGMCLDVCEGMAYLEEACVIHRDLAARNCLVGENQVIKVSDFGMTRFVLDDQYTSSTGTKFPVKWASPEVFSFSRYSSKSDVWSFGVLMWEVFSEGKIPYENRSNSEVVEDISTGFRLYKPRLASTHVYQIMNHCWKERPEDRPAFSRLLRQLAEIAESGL
Method: as §1, §2, §3

[1] = 1mM ATP, read-out: BTK IC50(nM) 1mM ATP
[2] = 1mM ATP, read-out: ITK IC50(nM) 1mM ATP
[3] = Km ATP (BTK: 10 uM), read-out: BTK IC50(nM) Km ATP
[4] = Km ATP (ITK: 25uM), read-out: ITK IC50(nM) Km ATP

T1 sequence (Q06187 whole entry): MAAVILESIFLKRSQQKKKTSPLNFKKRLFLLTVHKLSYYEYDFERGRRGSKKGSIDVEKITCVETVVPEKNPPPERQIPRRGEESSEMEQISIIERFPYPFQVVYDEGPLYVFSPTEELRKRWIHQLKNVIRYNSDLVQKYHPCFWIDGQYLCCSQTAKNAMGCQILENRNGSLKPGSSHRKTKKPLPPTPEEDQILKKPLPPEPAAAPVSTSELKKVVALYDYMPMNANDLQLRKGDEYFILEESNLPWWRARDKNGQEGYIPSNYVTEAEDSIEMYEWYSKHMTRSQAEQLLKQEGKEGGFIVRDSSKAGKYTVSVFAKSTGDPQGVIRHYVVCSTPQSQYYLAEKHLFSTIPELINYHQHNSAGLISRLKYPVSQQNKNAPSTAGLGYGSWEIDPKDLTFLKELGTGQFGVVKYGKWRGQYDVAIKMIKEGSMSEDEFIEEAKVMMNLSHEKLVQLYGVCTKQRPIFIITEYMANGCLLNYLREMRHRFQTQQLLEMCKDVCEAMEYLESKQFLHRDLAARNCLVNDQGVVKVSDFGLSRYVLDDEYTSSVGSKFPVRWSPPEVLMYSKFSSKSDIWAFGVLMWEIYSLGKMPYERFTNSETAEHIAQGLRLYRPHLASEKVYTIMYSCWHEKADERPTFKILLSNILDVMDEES

Row | SMILES | IC50 (BTK; [1]) [nM] | IC50 (ITK; [2]) [nM] | IC50 (BTK; [3]) [nM] | IC50 (ITK; [4]) [nM]
1 | C=CC(=O)N1CCC[C@@H]1COc1nc(Nc2ncc(C)s2)cc2c1ccn2CC(F)(F)F [Example 207, (R)-1-(2-(((6-((5-methylthiazol-2-yl)amino)-1-(2,2,2-trifluoroethyl)-1H-pyrrolo[3,2-c]pyridin-4-yl)oxy)methyl)pyrrolidin-1-yl)prop-2-en-1-one] | ≤ 20 | ≤ 20 | – | –
2 | C#CC(=O)N1C[C@H](F)[C@H](Oc2nc(Nc3ncc(C)s3)cc3c2ccn3CC(C)C)C1 [Example 231, 1-((3S,4R)-3-fluoro-4-((1-isobutyl-6-((5-methylthiazol-2-yl)amino)-1H-pyrrolo[3,2-c]pyridin-4-yl)oxy)pyrrolidin-1-yl)prop-2-yn-1-one] | ≤ 20 | ≤ 20 | – | –
3 | C=CC(=O)N1CC[C@H](Oc2nc(Nc3ncc(C)s3)cc3c2ccn3CCC(C)C)C1 [Example 114, (S)-1-(3-((1-isopentyl-6-((5-methylthiazol-2-yl)amino)-1H-pyrrolo[3,2-c]pyridin-4-yl)oxy)pyrrolidin-1-yl)prop-2-en-1-one] | ≤ 20 | ≤ 20 | – | –
4 | C=CC(=O)N1CC[C@H](Oc2nc(Nc3ncc(C)s3)cc3c2ccn3C)C1 [Example 130, (S)-1-(3-((1-methyl-6-((5-methylthiazol-2-yl)amino)-1H-pyrrolo[3,2-c]pyridin-4-yl)oxy)pyrrolidin-1-yl)prop-2-en-1-one] | ≤ 20 | ≤ 20 | – | –
5 | C=CC(=O)N1CCC[C@@H]1COc1nc(Nc2ncc(C)s2)cc2c1ccn2C(C)C [Example 89, (R)-1-(2-(((1-isopropyl-6-((5-methylthiazol-2-yl)amino)-1H-pyrrolo[3,2-c]pyridin-4-yl)oxy)methyl)pyrrolidin-1-yl)prop-2-en-1-one] | ≤ 20 | 20 to 100 | – | –
6 | C=CC(=O)N1CC[C@H](Oc2nc(Nc3ccn(C)n3)cc3c2ccn3C(C)C)C1 [Example 193, (S)-1-(3-((1-isopropyl-6-((1-methyl-1H-pyrazol-3-yl)amino)-1H-pyrrolo[3,2-c]pyridin-4-yl)oxy)pyrrolidin-1-yl)prop-2-en-1-one] | > 500 | > 500 | – | –
7 | C=CC(=O)N1C[C@@H](F)[C@@H](Oc2nc(Nc3ncc(C)s3)cc3c2ccn3CC(C)C)C1 [Example 135, 1-((3R,4S)-3-fluoro-4-((1-isobutyl-6-((5-methylthiazol-2-yl)amino)-1H-pyrrolo[3,2-c]pyridin-4-yl)oxy)pyrrolidin-1-yl)prop-2-en-1-one] | > 500 | > 500 | – | –
8 | C=CC(=O)N1CC=C(c2nc(Nc3ncc(C)s3)cc3c2ccn3C(C)C)CC1 [Example 2, 1-(4-(1-isopropyl-6-((5-methylthiazol-2-yl)amino)-1H-pyrrolo[3,2-c]pyridin-4-yl)-3,6-dihydropyridin-1(2H)-yl)prop-2-en-1-one] | 20 to 100 | 20 to 100 | ≤ 20 | ≤ 20
9 | C=CC(=O)N1CC=C(c2nc(Nc3ncc(C)s3)cc3c2ccn3C2CCCC2)CC1 [Example 5, 1-(4-(1-cyclopentyl-6-((5-methylthiazol-2-yl)amino)-1H-pyrrolo[3,2-c]pyridin-4-yl)-3,6-dihydropyridin-1(2H)-yl)prop-2-en-1-one] | – | – | ≤ 20 | ≤ 20
10 | C=CC(=O)N1C[C@@H](F)[C@H](Oc2nc(Nc3ncc(C)s3)cc3c2ccn3CC(C)C)C1 [Example 106, 1-((3R,4R)-3-fluoro-4-((1-isobutyl-6-((5-methylthiazol-2-yl)amino)-1H-pyrrolo[3,2-c]pyridin-4-yl)oxy)pyrrolidin-1-yl)prop-2-en-1-one] | ≤ 20 | ≤ 20 | – | –
11 | C=CC(=O)N1CC=C(c2nc(Nc3ncc(C)s3)cc3c2ccn3CC2CCOC2)CC1 (stereo not drawn) [Example 8, 1-(4-(6-((5-methylthiazol-2-yl)amino)-1-((tetrahydrofuran-3-yl)methyl)-1H-pyrrolo[3,2-c]pyridin-4-yl)-3,6-dihydropyridin-1(2H)-yl)prop-2-en-1-one] | – | – | ≤ 20 | ≤ 20
